Reference: article PMC8688338 (Molecular microbiology, 2021)
Values joined by “and” are separate entries in the source; they are usually repeats but may differ in a detail not shown here. Identical values can stand only once. Like-named read-outs stand apart in the source and are kept apart here.

How the values were obtained:
[1] = target: T. vaginalis nucleoside transporters, Uridine (HA); assay: [3H]-uridine transport in T. vaginalis trophozoites; type: cell-based, Trichomonas vaginalis; settings: for Km: read-out: Km,app, Uridine (HA)
[2] = test system: T. vaginalis nucleoside transporters, Inosine (LA); assay: Low affinity [3H]-inosine transport in T. vaginalis trophozoites; type: cell-based, Trichomonas vaginalis; settings: for Km: read-out: Km,app; for Ki: read-out: Ki,app
[3] = target: T. vaginalis nucleoside transporters, Adenosine (HA); assay: High affinity [3H]-adenosine transport in T. vaginalis trophozoites; type: cell-based, Trichomonas vaginalis
[4] = test system: low affinity pyrimidine nucleobase transporter of T. vaginalis; assay: [3H]-uracil transport in T. vaginalis trophozoites; type: cell-based, Trichomonas vaginalis; settings: for Ki: read-out: Ki,app
[5] = target: TvagENT3 (Trichomonas vaginalis, UniProt A2E5Q3); assay: [3H]-cytidine uptake by T. brucei TbAT1-KO cells expressing TvagENT3; settings: for inhibition of cytidine uptake: 0.5 µM [3H]-cytidine
[6] = target: T1, TvagENT6 (Trichomonas vaginalis, UniProt A2EMT5); assay: cell-based
[7] = test system: T. vaginalis nucleoside transporters, Adenosine (LA); assay: Low affinity adenosine transport; type: cell-based, Trichomonas vaginalis; settings: for inhibition of transport: 20 µM [3H]-adenosine, highest tested concentration: guanosine 250 µM, adenine 1 mM, hypoxanthine 1 mM, uracil 10 mM; for Ki: read-out: Ki,app, average and SEM; for Ki / EC50: inhibition of 20 µM [3H]-adenosine transport; for EC50: single experiment, Fig. 4
[8] = test system: T. vaginalis nucleoside transporters, Thymidine (HA); assay: Higher affinity [3H]-thymidine transport; type: cell-based, Trichomonas vaginalis; settings: for EC50: single experiment
[9] = test system: T. vaginalis nucleoside transporters; settings: ref Harris et al., 1988; cited from earlier work
[10] = target: T. vaginalis nucleoside transporters, Cytidine (HA); assay: High affinity [3H]-cytidine transport in T. vaginalis trophozoites; type: cell-based, Trichomonas vaginalis; settings: for Ki: read-out: Ki,app, inhibition of […] [3H]-cytidine transport, 30 s; for Km: read-out: Km,app, […] [3H]-cytidine
[11] = test system: T. vaginalis nucleoside transporters, Guanosine (HA); assay: [3H]-guanosine transport in T. vaginalis trophozoites; type: cell-based, Trichomonas vaginalis; settings: for Ki: read-out: Ki,app, inhibition of [3H]-guanosine transport, monophasic sigmoid curve
[12] = target: T1, TvagENT6
[13] = test system: T. vaginalis; settings: cited from earlier work
[14] = test system: T. vaginalis adenine transporter; assay: [3H]-adenine transport in T. vaginalis trophozoites; type: cell-based, Trichomonas vaginalis; settings: for Km: read-out: Km,app
[15] = test system: T. vaginalis nucleoside transporters, Cytidine (LA); assay: Low affinity cytidine transport in T. vaginalis trophozoites; type: cell-based, Trichomonas vaginalis; settings: Cytidine (LA); average and SEM
[16] = test system: T. vaginalis trophozoites; assay: Preliminary uptake of cytosine and thymine by T. vaginalis trophozoites; type: cell-based, Trichomonas vaginalis; settings: preliminary experiments
[17] = test system: Nc1ccn([C@@H]2O[C@H](CO)[C@@H](O)[C@H]2O)c(=O)n1; assay: cells, lysate or membranes
[18] = read-out: Ki,app, low affinity component
[19] = inhibition of 0.125 µM [3H]-thymidine uptake, Fig. 3C/D
[20] = inhibition of 1 µM [3H]-inosine uptake, average and SEM
[21] = read-out: Ki,app, inhibition of […] [3H]-adenosine transport, 30 s, monophasic, average and SEM
[22] = single experiment, Fig. 6E inset
[23] = inhibition of 0.5 µM [3H]-uracil uptake

O=c1[nH]cnc2c1ncn2[C@@H]1O[C@H](CO)[C@@H](O)[C@H]1O [inosine]
Ki [1, 18]: 231 ± 23 µM
rate of uptake ([2]; 1 µM [3H]-inosine): 0.0081 ± 0.0002 pmol(10^7 cells)^−1s^−1
inhibition of uptake ([2]; 1 µM [3H]-inosine time course, 1 mM unlabelled nucleoside): 88%
rate of uptake ([2]; 1 µM [3H]-inosine, listed as Inosine): 0.0081 pmol(10^7 cells)^−1s^−1
Vmax ([2]; Inosine (LA), average and SEM): 2.25 ± 0.37 pmol(10^7 cells)^−1s^−1
EC50 ([2]; inhibition of 1 µM [3H]-inosine uptake, single experiment, Fig. 5B): 67.1 µM
Km ([2]; Inosine (LA), 1 µM [3H]-inosine, average and SEM): 196 ± 18 µM
Km ([2]; single experiment, Fig. 5B inset): 157 µM
Ki [3, 18]: 347 ± 127 µM
inhibition of uracil transport ([4]; uridine, thymidine up to 10 mM, adenosine, inosine up to 1 mM): unable to inhibit
Hill slope [5]: −1.08 ± 0.02
inhibition of cytidine uptake ([5]; inhibitor at 400 µM): completely
Hill slope ([5]; single experiment, Fig. 10D-F): −1.07
Ki [6]: 40 ± 9.5 µM

Nc1nc2c(ncn2[C@@H]2O[C@H](CO)[C@@H](O)[C@H]2O)c(=O)[nH]1 [guanosine]
inhibition of transport [7]: ≤ 50%
Ki [7]: > 250 µM
EC50 [8, 19]: 51.2 µM
Km [9]: 13.9 µM
Ki [2, 20]: 7.41 ± 2.92 µM
Ki ([2]; inhibition of 1 µM [3H]-inosine uptake, average and SEM, listed as Guanosine): 7.4 ± 2.9 µM
Ki [3, 21]: 12.2 ± 2.4 µM
Hill slope [5]: −1.33 ± 0.09
Ki [5]: 2.9 ± 0.14 µM
Ki ([10]; average and SEM): 16.7 ± 2.6 µM
rate of transport ([11]; 1 µM [3H]-guanosine): 0.22 ± 0.01 pmol(10^7 cells)^−1s^−1
rate of transport in the presence of unlabelled permeant ([11]; 1 µM [3H]-guanosine + 0.25 mM unlabelled guanosine): 0.0030 ± 0.0004 pmol(10^7 cells)^−1s^−1
reduction of uptake ([11]; 1 µM [3H]-guanosine by 250 µM guanosine): 98.6%
Vmax ([11]; Guanosine (HA), average and SEM): 0.91 ± 0.25 pmol(10^7 cells)^−1s^−1
Km ([11]; read-out: Km,app, Guanosine (HA), average and SEM): 9 ± 0.6 µM

O=c1ccn([C@@H]2O[C@H](CO)[C@@H](O)[C@H]2O)c(=O)[nH]1 [uridine]
EC50 [7]: 519 µM
Ki [7]: 376 ± 63 µM
EC50 [8, 19]: 15.3 µM
Vmax ([12]; [3H]-uridine in the presence of 250 µM uracil, average): 0.092 ± 0.021 pmol(10^7 cells)^−1s^−1
Km [9]: 2.5 µM
Km ([1]; 30 s, average and SEM): 5.49 ± 1.8 µM
Km ([1]; 30 s, average and SEM, listed as Uridine): 5.5 ± 1.8 µM
Ki [2, 20]: 3.6 ± 1.1 µM
Ki [3, 21]: 3.7 ± 1 µM
Ki [5]: 11.3 ± 1.8 µM
inhibition of cytidine uptake ([5]; inhibitor at 400 µM): completely
Hill slope ([5]; inhibition of 0.5 µM [3H]-cytidine transport by TvagENT3, average): −0.98 ± 0.08
Hill slope ([5]; single experiment, Fig. 10D-F): −0.93
Ki ([10]; average and SEM): 1.98 ± 0.5 µM
Ki ([10]; average and SEM, listed as Uridine): 2 ± 0.5 µM
Ki ([11]; average and SEM): 7.8 ± 1.3 µM

O=c1[nH]cc(F)c(=O)[nH]1 [5F-uracil]
Ki [4]: 265 ± 57 µM

2’F,2’-deoxyadenosine
antitrichomonal activity ([13]; ref Shokar et al., 2012): strong antitrichomonal activity
Hill slope [5]: −0.97± 0.15
Ki ([5]; read-out: Ki,app): 1.11 ± 0.38 µM

Nc1ncnc2nc[nH]c12 [adenine]
inhibition of transport [7]: ≤ 50%
Ki [7]: > 1000 µM
inhibition of transport ([8]; 125 nM [3H]-thymidine, nucleobase at 1 mM): ≤ 50%
inhibition of transporter ([12]; adenine up to 1 mM): not significantly inhibited
EC50 [14]: 0.35 µM
rate of transport ([14]; 50 nM [3H]-adenine): 0.00073 pmol(10^7 cells)^−1s^−1
rate of transport in the presence of unlabelled permeant ([14]; 50 nM [3H]-adenine + 1 mM unlabelled adenine): 0.000097 pmol(10^7 cells)^−1s^−1
inhibition of uptake ([14]; 50 nM [3H]-adenine by 1 mM unlabelled adenine): 86.7%
Vmax ([14]; 50 nM [3H]-adenine, average): 0.091 ± 0.027 pmol(10^7 cells)^−1s^−1
rate of transport ([14]; 1 µM [3H]-adenine): 0.0164 pmol(10^7 cells)^−1s^−1 and 0.016 pmol(10^7 cells)^−1s^−1
rate of transport in the presence of unlabelled permeant ([14]; 1 µM [3H]-adenine + 1 mM unlabelled adenine): 0.00429 pmol(10^7 cells)^−1s^−1
inhibition of uptake ([14]; 1 µM [3H]-adenine by 1 mM unlabelled adenine): 73.8%
EC50 ([14]; inhibition of [3H]-adenine uptake, single experiment, Fig. 6E): 0.27 µM
EC50 ([14]; read-out: EC50, high affinity component, two transporter model, Fig. 6F): 0.23 µM
EC50 ([14]; read-out: EC50, lower affinity component, two transporter model, Fig. 6F, large degree of uncertainty): 17 µM
Km ([14]; 50 nM [3H]-adenine, high-affinity system, average): 0.41 ± 0.097 µM
Km [14, 22]: 0.23 µM
Vmax [14, 22]: 0.155 pmol(10^7 cells)^−1s^−1
share of flux of high affinity component ([14]; two transporter model, Fig. 6F): 81%
Ki ([3]; read-out: Ki,app, inhibition of […] [3H]-adenosine transport): > 1000 µM
Ki [3, 21]: ~1000 µM

Nc1ccn([C@@H]2O[C@H](CO)[C@@H](O)[C@H]2O)c(=O)n1 [cytidine]
EC50 [7]: 290 µM
Ki [7]: 116 ± 5 µM
EC50 ([8]; read-out: EC50, higher affinity component, 0.125 µM [3H]-thymidine, 2-transporter plot, Fig. 3D): 2.86 µM
EC50 ([8]; read-out: EC50, lower affinity component, 0.125 µM [3H]-thymidine, 2-transporter plot, Fig. 3D): 322 µM
Vmax [15]: 6.7 ± 1.8 pmol(10^7 cells)^−1s^−1
Ki ([1]; read-out: Ki,app, inhibition of 0.5 µM [3H]-uridine transport, 30 s, average and SEM): 15.6 ± 2.3 µM
Ki [3, 21]: 17.9 ± 4.4 µM
inhibition of cytidine uptake ([5]; 1 mM unlabelled cytidine): strongly inhibited
Vmax ([5]; single experiment, Fig. 10D inset): 0.042 pmol(10^7 cells)^−1s^−1
Hill slope ([5]; single experiment, Fig. 10D-F): −0.99
inhibition of uptake ([10]; 0.25 µM [3H]-cytidine by 1 mM unlabelled cytidine): 97.0%
rate of transport ([10]; 0.25 µM [3H]-cytidine, no inhibitor): 0.026 ± 0.001 pmol(10^7 cells)^−1s^−1
Vmax ([10]; Cytidine (HA), average and SEM): 0.83 ± 0.06 pmol(10^7 cells)^−1s^−1
Km ([10]; Cytidine (HA), average and SEM): 7.19 ± 1.77 µM
Km ([10]; Cytidine (HA), average and SEM, listed as Cytidine): 7.2 ± 1.8 µM
Ki ([11]; average and SEM): 18.6 ± 0.9 µM

Nc1cc[nH]c(=O)n1 [cytosine]
saturable uptake ([16]; cytosine 0.25 µM over 120 s): not significant
Ki [4, 23]: 334 ± 73 µM

Nc1ncnc2c([C@@H]3O[C@H](CO)[C@@H](O)[C@H]3O)[nH]nc12 [formycin A]
antitrichomonal activity ([13]; ref Munagala and Wang, 2003): strong antitrichomonal activity

TvagENT3 (Trichomonas vaginalis G3)
Km ([17]; other: 0.5 µM [3H]-cytidine, TvagENT3 in T. brucei TbAT1-KO, average): 10.2 ± 2.6 µM
Km ([17]; other: single experiment, Fig. 10D inset): 10.9 µM

Nc1ncnc2c1ncn2[C@@H]1O[C@H](CO)[C@@H](O)[C@@H]1O [adenine arabinoside]
antitrichomonal activity ([13]; ref Shokar et al., 2012): strong antitrichomonal activity

Cc1c[nH]c(=O)[nH]c1=O [thymine]
saturable uptake ([16]; thymine 0.5 µM over 120 s): not significant
Ki [4, 23]: 57 ± 8 µM

Nc1ncnc2c1ncn2[C@@H]1O[C@H](CO)[C@@H](O)[C@@H]1F [2′-F,2′-deoxyarabinoadenosine]
antitrichomonal activity ([13]; ref Shokar et al., 2012): strong antitrichomonal activity
